{"source": "paper PMC7093416", "about": "“Selective USP7 inhibition elicits cancer cell killing through a p53-dependent mechanism” (Scientific Reports, 2020)", "key": {"[1]": {"target": "T1, USP7 C223A catalytic domain (Homo sapiens, UniProt Q93009, C223A)", "T1 construct": "catalytic domain (208–560) used were cloned as described; inferred from Ni-NTA purification; made in house; host or cells: E. coli BL21 (DE3)", "T1 sequence (Q93009 208-560 C223A)": "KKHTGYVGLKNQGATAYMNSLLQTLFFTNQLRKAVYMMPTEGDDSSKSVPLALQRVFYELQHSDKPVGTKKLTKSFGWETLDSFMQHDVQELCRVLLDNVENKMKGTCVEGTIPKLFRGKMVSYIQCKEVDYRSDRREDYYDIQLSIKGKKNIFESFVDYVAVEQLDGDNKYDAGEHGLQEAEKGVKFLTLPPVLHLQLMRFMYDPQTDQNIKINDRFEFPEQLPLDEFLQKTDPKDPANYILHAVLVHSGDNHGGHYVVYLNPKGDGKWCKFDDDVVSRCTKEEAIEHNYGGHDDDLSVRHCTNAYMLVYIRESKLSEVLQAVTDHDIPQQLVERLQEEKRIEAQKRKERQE", "experiment": "Intact MS labeling of USP7 C223A catalytic domain", "type": "binding", "details": "2.5-fold molar excess, 2 hours", "protocol": "The constructs encoding USP7 full length (amino acids 1–1102) and catalytic domain (208–560) used were cloned as described. Both constructs were overexpressed in E. coli BL21 (DE3). Cells were grown at 37 °C to an OD of 0.9, cooled to 16 °C, induced with 500 μM isopropyl-1-thio-D-galactopyranoside (IPTG), incubated overnight at 16 °C, collected by centrifugation, and stored at −80 °C. Cell pellets were sonicated in lysis buffer (25 mM Tris pH 8, 1 M NaCl, and 10 mM BME) supplemented with 10 μg/ml phenylmethanesulfonylfluoride (PMSF) and the resulting lysate was centrifuged at 30,000 xg for 40 min. Ni-NTA beads (Qiagen) were mixed with lysate supernatant for 2 hours, and washed with lysis buffer supplemented with 25 mM imidazole. The bound protein was eluted with lysis buffer supplemented with 300 mM imidazole. […]\nFigure S1: Full-length recombinant purified USP7 was pre-incubated with XL041 at the indicated concentrations for the indicated times, then Ub-AMC was added and fluorescence was monitored. […]\nFigure S5: MCF7 cells were transfected with the indicated pcDNA constructs for 48 hours, then treated with XL177A at the indicated concentration for 3 hours. Cells were lysed, and FLAG-USP7 target engagement was assessed with the DUB ABP HA-Ub-VS. Densitometry was performed using ImageStudio software and analyzed using Graphpad Prism. […]"}, "[2]": {"target": "USP7 (Homo sapiens, UniProt Q93009)", "sequence (Q93009 whole entry)": "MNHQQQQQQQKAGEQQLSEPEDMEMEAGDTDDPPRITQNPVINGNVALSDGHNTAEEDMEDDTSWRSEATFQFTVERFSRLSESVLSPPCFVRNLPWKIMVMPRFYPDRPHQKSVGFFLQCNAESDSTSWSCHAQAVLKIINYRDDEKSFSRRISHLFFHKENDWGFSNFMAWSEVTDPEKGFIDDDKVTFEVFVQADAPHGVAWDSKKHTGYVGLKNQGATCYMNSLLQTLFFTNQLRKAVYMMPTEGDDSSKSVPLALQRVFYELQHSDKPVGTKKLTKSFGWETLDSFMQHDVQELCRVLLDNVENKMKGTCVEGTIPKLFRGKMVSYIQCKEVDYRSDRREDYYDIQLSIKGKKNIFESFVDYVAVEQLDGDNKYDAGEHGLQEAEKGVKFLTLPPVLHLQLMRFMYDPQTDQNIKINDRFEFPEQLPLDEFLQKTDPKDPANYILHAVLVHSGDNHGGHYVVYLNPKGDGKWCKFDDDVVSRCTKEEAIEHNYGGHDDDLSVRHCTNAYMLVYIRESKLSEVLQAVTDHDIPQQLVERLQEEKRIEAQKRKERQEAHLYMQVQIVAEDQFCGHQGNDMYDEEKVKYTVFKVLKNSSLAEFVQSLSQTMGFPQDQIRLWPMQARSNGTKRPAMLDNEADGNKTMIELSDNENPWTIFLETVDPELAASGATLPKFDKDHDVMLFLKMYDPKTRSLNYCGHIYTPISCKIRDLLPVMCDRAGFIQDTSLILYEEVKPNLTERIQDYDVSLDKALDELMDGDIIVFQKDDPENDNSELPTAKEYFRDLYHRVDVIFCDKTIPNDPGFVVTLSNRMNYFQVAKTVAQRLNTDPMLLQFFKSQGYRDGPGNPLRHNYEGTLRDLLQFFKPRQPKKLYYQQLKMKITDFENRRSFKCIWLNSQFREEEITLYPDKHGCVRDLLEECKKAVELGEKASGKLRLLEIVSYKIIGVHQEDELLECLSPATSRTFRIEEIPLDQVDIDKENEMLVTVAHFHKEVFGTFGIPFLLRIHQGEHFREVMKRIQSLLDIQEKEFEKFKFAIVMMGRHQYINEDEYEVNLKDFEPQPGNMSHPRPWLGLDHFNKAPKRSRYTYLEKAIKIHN", "experiment": "In vitro DUB profiling (Ubiquigent, Ub-Rho), USP7", "type": "biochemical", "details": "1 µM, 15-minute pre-treatment", "protocol": "Compounds were screened using the Ubiquigent Drug Profiler SPT system (www.ubiquigent.com/drug-discovery-services/dubprofiler/). Each of 41 purified DUBs was incubated with compound for 15 minutes, then ubiquitin rhodamine 110 (Ub-Rho) was added and percent inhibition determined based on fluorescence relative to a DMSO control."}, "[3]": {"target": "T2, USP7-F291N (Homo sapiens, UniProt Q93009, F291N)", "T2 construct": "made in house", "T2 sequence (Q93009 whole entry F291N)": "as the sequence (Q93009 whole entry) above, with F291N counted along it", "experiment": "Ub-AMC enzymatic assay, USP7-F291N mutant", "type": "biochemical", "details": "6-hr pre-incubation"}}, "note": "pIC50: −log10 of the molar value.", "data": [{"compound": "CN1CCN(CCC(=O)Nc2ccc3c(=O)n(CC4(O)CCN(C(=O)[C@@H](CCCNC(=O)c5ccc6c(Cl)c7c(nc6c5)CCCC7)Cc5ccccc5)CC4)cnc3c2)CC1", "note": "[XL177A]", "values": [{"measurement": "mass shift with USP7 C223A", "setting": "[1]", "value": "no mass shift was detected"}, {"measurement": "USP7 enzymatic activity", "setting": "[2]", "value": "completely inhibited"}, {"measurement": "pIC50", "setting": "[3]", "value": 6.20}]}]}
